Measured values from article PMC6926482, “LCO Receptors Involved in Arbuscular Mycorrhiza Are Functional for Rhizobia Perception in Legumes” (Current Biology, 2019).

How the values were obtained:
PhLYK10-YFP = target: T1, PhLYK10-YFP; assay: radioligand competition on membrane fractions; assay type: binding, Petunia hybrida; details: competition with LCO-V(C18:1,NMe,35S) 1-2 nM; competitor tested at 1 μM only; pH 6
T1 construct: gene LYK10; expressed in Nicotiana benthamiana leaves, membrane fraction

SlLYK10c-YFP = target: T2, SlLYK10c-YFP; assay: radioligand competition on membrane fractions; assay type: binding, Solanum lycopersicum; details: competition with LCO-V(C18:1,NMe,35S) 1-2 nM
T2 construct: gene LYK10; SlLYK10 extracellular region fused to TM/ICR of Medicago truncatula NFP, YFP kept (about 102 kDa with 6 predicted N-glycans); expressed in Nicotiana benthamiana leaves, membrane fraction; with Serine/threonine receptor-like kinase NFP (Medicago truncatula; transmembrane and intracellular region fused to the SlLYK10 extracellular region)

[1] = competitor tested at 1 μM only, pH 6
[2] = 25 mM Na-cacodylate pH 6, 1 mM CaCl2, 1 mM MgCl2, n = 3

SMILES | Ki (PhLYK10-YFP) [nM] | Ki (SlLYK10c-YFP; [1]) [nM] | Ki (SlLYK10c-YFP; [2]) [nM]
CC(=O)N[C@H]1[C@H](O[C@H]2[C@H](O)[C@@H](NC(C)=O)C(O)O[C@@H]2CO)O[C@H](CO)[C@@H](O[C@@H]2O[C@H](CO)[C@@H](O[C@@H]3O[C@H](CO)[C@@H](O)[C@H](O)[C@H]3NC(C)=O)[C@H](O)[C@H]2NC(C)=O)[C@@H]1O (stereo partly drawn) [CO4] | > 1000 | > 1000 | 
CC(=O)N[C@H]1[C@H](O[C@H]2[C@H](O)[C@@H](NC(C)=O)[C@H](O[C@H]3[C@H](O)[C@@H](NC(C)=O)[C@H](O[C@H]4[C@H](O)[C@@H](NC(C)=O)C(O)O[C@@H]4CO)O[C@@H]3CO)O[C@@H]2CO)O[C@H](CO)[C@@H](O[C@@H]2O[C@H](CO)[C@@H](O[C@@H]3O[C@H](CO)[C@@H](O[C@@H]4O[C@H](CO)[C@@H](O[C@@H]5O[C@H](CO)[C@@H](O)[C@H](O)[C@H]5NC(C)=O)[C@H](O)[C@H]4NC(C)=O)[C@H](O)[C@H]3NC(C)=O)[C@H](O)[C@H]2NC(C)=O)[C@@H]1O (stereo partly drawn) [CO8] | > 1000 | > 1000 | 
CCCCCCCCCCCCCCCC(=O)N[C@H]1[C@H](O[C@H]2[C@H](O)[C@@H](NC(C)=O)[C@H](O[C@H]3[C@H](O)[C@@H](NC(C)=O)[C@H](O[C@H]4[C@H](O)[C@@H](NC(C)=O)C(O)O[C@@H]4COS(=O)(=O)O)O[C@@H]3CO)O[C@@H]2CO)O[C@H](CO)[C@@H](O)[C@@H]1O (stereo partly drawn) [LCO-IV(C16:0,S)] |  |  | 192 ± 52
CCCCCCCCCCCCCCCC(=O)N[C@H]1[C@H](O[C@H]2[C@H](O)[C@@H](NC(C)=O)[C@H](O[C@H]3[C@H](O)[C@@H](NC(C)=O)[C@H](O[C@H]4[C@H](O)[C@@H](NC(C)=O)C(O)O[C@@H]4CO)O[C@@H]3CO)O[C@@H]2CO)O[C@H](CO)[C@@H](O)[C@@H]1O (stereo partly drawn) [LCO-IV(C16:0)] |  |  | 354 ± 60
